Assay results from patent publication US20220054532A1, “VETERINARY COMPOSITIONS AND METHODS OF USE THEREFOR” (priority 2019, published 2022).

Tests used:
Type in all cases: in vivo
[1] = tested on: dogs suffering from cognitive dysfunction syndrome; assay: Example 2: cognitive decline, Cognitive Dysfunction Screening Checklist; conditions: for Average Final Score: day 60, BID
Text: (§1) This example examines the ability of embodiments of the invention versus Anipryl® to treat cognitive decline.
The patient group is twenty dogs suffering from cognitive dysfunction syndrome, as determined by the Cognitive Dysfunction Screening Checklist. See G. Landsberg et al., 2003 HANDBOOK OF BEHAVIOR PROBLEMS OF THE DOG AND CAT (Elsevier Science Limited) (2003). The twenty dogs are broken into five groups of four dogs. The first group receives Anipryl® as the sole active agent; the second group receives a composition comprising HMW HA as the sole active agent; the third group receives a composition comprising CBD as the sole active agent; the fourth group receives a composition comprising HMW HA and CBD as the active agents; and the fifth group receives a composition comprising HMW HA, CBD, nicotinamide adenine dinucleotide (“NAD”), and phosphatidylserine as the active agents.
(§2) Each composition is administered for a period of sixty (60) days, twice per day (“BID”). The owner completes the Checklist on days 0 (“Initial Score”), 15, 30, 45, and 60 (“Final Score”) of treatment.
Each group is evaluated and Checklist scores averaged. The following scores are observed and the results depicted in FIG. 2: […]

[2] = tested on: dogs suffering from cognitive dysfunction syndrome; assay: Example 10: cognitive decline, Cognitive Dysfunction Screening Checklist (CBD Complex); conditions: for Average Final Score: day 60, BID
Text: as §1
The patient group is twenty dogs suffering from cognitive dysfunction syndrome, as determined by the Cognitive Dysfunction Screening Checklist. See G. Landsberg et al., 2003 HANDBOOK OF BEHAVIOR PROBLEMS OF THE DOG AND CAT (Elsevier Science Limited) (2003). The twenty dogs are broken into five groups of four dogs. The first group receives Anipryl® as the sole active agent; the second group receives a composition comprising HMW HA as the sole active agent; the third group receives a composition comprising CBD as the sole active agent; the fourth group receives a composition comprising HMW HA and CBD Complex as the active agents; and the fifth group receives a composition comprising HMW HA, CBD Complex, nicotinamide adenine dinucleotide (“NAD”), and phosphatidylserine as the active agents.
as §2
Each group is evaluated and Checklist scores averaged. The following scores are observed and the results depicted in FIG. 10: […]

[3] = tested on: dogs suffering from heart failure; assay: Example 7: heart failure in dogs; conditions: heart failure scale 1 (few to no clinical signs) to 10 (severe)
Text: This example examines the ability of embodiments of the invention versus enalapril to treat heart failure.
The patient group is twenty-four dogs suffering from heart failure.
The patient group is broken into six groups of four dogs. The first group receives enalapril as the sole active agent; the second group receives a composition comprising enalapril and Lasix®; the third group receives a composition comprising HMW HA as the sole active agent; the fourth group receives a composition comprising CBD as the sole active agent; the fifth group receives a composition comprising HMW HA and CBD as the active agents; and the sixth group receives a composition comprising HMW HA, CBD, liposomal CoQ10, hawthorn berry, and ginko biloba as the active agents.
Each composition is administered for a period of ninety (90) days, BID. Each animal is evaluated on days 0 (“Initial Score”), 30, 60, and 90 (“Final Score”) of treatment. The results are averaged and characterized on a scale of 1 (few to no clinical signs of heart failure) to 10 (severe heart failure).
The following canine scores are observed and the results depicted in FIG. 7: […]

[4] = tested on: dogs suffering from GI-specific inflammation; assay: Example 3: GI-specific inflammation, owner-rated symptom reduction (canine); conditions: symptom reduction score 0 (no reduction) to 4 (resolution of symptoms)
Text: (§3) This example examines the ability of embodiments of the invention versus Pepcid® to treat unwanted GI-specific inflammation characterized by gastritis, reflux, vomiting, diarrhea, and inappetence.
(§4) The first patient group is twenty dogs suffering from GI-specific inflammation. The second patient group is twenty cats suffering from GI-specific inflammation. Each patient group is broken into five groups of four animals. The first groups receive Pepcid® as the sole active agent; the second groups receive a composition comprising HMW HA as the sole active agent; the third groups receive a composition comprising CBD as the sole active agent; the fourth groups receive a composition comprising HMW HA and CBD as the active agents; and the fifth groups receive a composition comprising HMW HA, CBD, and glutathione as the active agents.
(§5) Each composition is administered for a period of twenty-eight (28) days, BID. The owner observes potential reduction of symptoms at the end of treatment and rates the reduction as no reduction (score of 0), mild reduction (score of 1), moderate reduction (score of 2), significant reduction (score of 3), or resolution of symptoms (score of 4).
The following canine scores are observed and the results depicted in FIG. 3a: […]

[5] = tested on: cats suffering from GI-specific inflammation; assay: Example 3: GI-specific inflammation, owner-rated symptom reduction (feline); conditions: symptom reduction score 0 (no reduction) to 4 (resolution of symptoms)
Text: as §3, §4, §5
The following feline scores are observed and the results depicted in FIG. 3b: […]

[6] = tested on: dogs suffering from GI-specific inflammation; assay: Example 11: GI-specific inflammation, owner-rated symptom reduction (canine, CBD Complex); conditions: canine (FIG. 11a), symptom reduction score 0 (no reduction) to 4 (resolution of symptoms)
Text: as §3
as §4, with “and CBD Complex as the” for “and CBD as the”, “HMW HA, CBD Complex, and glutathione” for “HMW HA, CBD, and glutathione”
as §5

[7] = tested on: cats suffering from GI-specific inflammation; assay: Example 11: GI-specific inflammation, owner-rated symptom reduction; conditions: species not given, symptom reduction score 0 to 4
Text: as §3
as §4, with “and CBD Complex as the” for “and CBD as the”, “HMW HA, CBD Complex, and glutathione” for “HMW HA, CBD, and glutathione”
as §5

[8] = tested on: dogs with a history of severe, chronic skin issues, atopy, pruritis, yeast overgrowth, and/or infection; assay: Example 8: skin conditions (itch score) and side effects in dogs; design: Average Side Effect Score: scale not given here
Text: (§6) This example examines the ability of embodiments of the invention versus prednisone to treat skin conditions.
(§7) The patient group is twenty-four dogs with a history of severe, chronic skin issues, atopy, pruritis, yeast overgrowth, and/or infection, as diagnosed by their referring veterinarian. The patient group is broken into six groups of four animals. The first group receives prednisone as the sole active agent; the second group receives a composition comprising prednisone and HMW HA as the active agents; the third group receives a composition comprising HMW HA as the sole active agent; the fourth group receives a composition comprising CBD as the sole active agent; the fifth group receives a composition comprising HMW HA and CBD as the active agents; and the sixth group receives a composition comprising HMW HA, CBD, quercetin, and nettles as the active agents.
(§8) Each composition is administered for a period of sixty (60) days, BID. Each dog is evaluated on days 0 (“Initial Score”), 20, 40, and 60 (“Final Score”) of treatment. The results are averaged and characterized on a scale of 0 (no itching—normal dog), 2 (very mild itching—only occasional episodes), 4 (mild itching), 6 (moderate itching—regular episodes), 8 (severe itching—prolonged episodes), to 10 (extremely severe itching—almost continuous).
The following scores are observed and the results depicted in FIG. 8: […]

[9] = tested on: dogs with a history of severe, chronic skin issues, atopy, pruritis, yeast overgrowth, and/or infection; assay: Example 16: skin conditions (itch score) and side effects in dogs (CBD Complex); conditions: dogs with skin conditions; 60 days BID
Text: as §6
as §7, with “and CBD Complex as the” for “and CBD as the”, “HMW HA, CBD Complex, quercetin, and” for “HMW HA, CBD, quercetin, and”
as §8

[10] = tested on: dogs suffering from osteoarthritis; assay: Example 1: pain relief and side effects in canine osteoarthritis; conditions: dogs with osteoarthritis, 4 weeks of administration, group average
Text: (§9) This example examines the ability of various compositions to minimize pain and examines the level of adverse side effects of each composition.
(§10) At the outset of the study, participants receive a full physical examination, including weight measurement, thigh circumference, and CBC/blood chemistries. Because osteoarthritis is not only a disease of pain, but one characterized by behavioral, appetite, anxiety/aggression, family socialization, and sleep aberrations, the pet's owners are familiarized with the pain scale (canine orthopedic index) and additional behavioral assessment log.
The patient group is twenty-four dogs suffering from osteoarthritis, broken into eight groups of three dogs. The first group receives a control composition with no active agent; the second group receives a composition comprising HA as the sole active agent; the third group receives a composition comprising HMW HA as the sole active agent; the fourth group receives a composition comprising CBD as the sole active agent; the fifth group receives a composition comprising HA and CBD as the active agents; the sixth group receives a composition comprising HMW HA and CBD as the active agents; the seventh group receives a composition comprising Rimadyl as the active agent; and the eighth group receives a composition comprising Meloxicam as the active agent.
(§11) Each composition is administered for a period of four (4) weeks. The owner completes the electronic log questionnaire each week. At the end of the 4-week study, participants have another full physical examination, including weight measurement, thigh circumference, and CBC/blood chemistries, with an exit interview of the owners to gain final impressions.
Each group is evaluated for pain scores and the scores averaged. The following scores are observed and the results depicted in FIG. 1: […]

[11] = tested on: dogs suffering from osteoarthritis; assay: Example 9: pain relief and side effects in canine osteoarthritis (CBD Complex); conditions: dogs with osteoarthritis, 4 weeks of administration, group average
Text: as §9, §10
The patient group is twenty-four dogs suffering from osteoarthritis, broken into eight groups of three dogs. The first group receives a control composition with no active agent; the second group receives a composition comprising HA as the sole active agent; the third group receives a composition comprising HMW HA as the sole active agent; the fourth group receives a composition comprising CBD as the sole active agent; the fifth group receives a composition comprising HA and CBD as the active agents; the sixth group receives a composition comprising HMW HA and CBD Complex as the active agents; the seventh group receives a composition comprising Rimadyl as the active agent; and the eighth group receives a composition comprising Meloxicam as the active agent.
as §11
Each group is evaluated for pain scores and the scores averaged. The following scores are observed and the results depicted in FIG. 9: […]

C#CCN(C)[C@H](C)Cc1ccccc1 [Anipryl ®, Selegiline]
Average Initial Score ([1]; day 0 (before treatment)): 3 | Average Final Score [1]: 2 | Average Final Score ([1]; listed as Anipryl®): as effective as HMW HA alone | Average Initial Score ([2]; day 0 (before treatment)): 3 | Average Final Score [2]: 2 | Average Final Score ([2]; listed as Anipryl®): as effective as HMW HA alone

CCOC(=O)[C@H](CCc1ccccc1)N[C@@H](C)C(=O)N1CCC[C@H]1C(=O)O [Enalapril]
Initial Score ([3]; day 0): 8 | Final Score ([3]; day 90, BID): 5

NC(N)=Nc1nc(CSCCC(N)=NS(N)(=O)=O)cs1 [Pepcid ®, Famotidine]
Final Score ([4]; after 28 days BID): 1 | Initial Score ([4]; initial): 0 | Final Score ([5]; after 28 days BID): 1 | Initial Score ([5]; initial): 0 | Final Score ([6]; after 28 days BID): 1 | Initial Score ([6]; initial): 0 | Final Score ([7]; after 28 days BID): 1 | Initial Score ([7]; initial): 0

C[C@]12C=CC(=O)C=C1CC[C@@H]1[C@@H]2C(=O)C[C@@]2(C)[C@H]1CC[C@]2(O)C(=O)CO [Prednisone]
Average Side Effect Score ([8]; dogs with skin conditions, 60 days BID): 17 | Initial Itch Score ([8]; itch scale 0 (no itching) to 10 (extremely severe), day 0): 9 | Final Itch Score ([8]; itch scale 0 (no itching) to 10 (extremely severe), day 60, BID): 6 | Average Side Effect Score [9]: 17

hyaluronic acid [HA Alone]
Average Pain Score [10]: 18 | Average Side Effect Score [10]: 6 | Average Pain Score ([10]; listed as HA alone): only slightly reduce pain | Average Side Effect Score ([10]; listed as HA alone): low degree of adverse side effects | Average Pain Score [11]: 18 | Average Side Effect Score [11]: 6 | Average Pain Score ([11]; listed as HA alone): only slightly reduce pain | Average Side Effect Score ([11]; listed as HA alone): low degree of adverse side effects
